Data on two molecules can be found in PMC12313340, “Functional analysis of a UDP-glucosyltransferase gene contributing to biosynthesis of the flavonol triglycoside in tea plants” (Horticulture Research, 2025).

In data set [1] the target is T1, CsFGT (rCsFGT) (Camellia sinensis, UniProt A0A0X9FCW5, R319N).
T1 construct: gene UGT91Q1; N-terminal 6xHis-trigger factor fusion (pCold-TF), about 105 kDa; E. coli Origami (DE3); tag not removed for kinetics
In words: product formation by HPLC. To be noted: co-substrate UDP-glc. Format: biochemical.

Data set [2] has as its target T2, CsFGT (rCsFGT) (Camellia sinensis, UniProt A0A0X9FCW5, Q352A).
T2 construct: gene UGT91Q1; N-terminal 6xHis-trigger factor fusion (pCold-TF), about 105 kDa; E. coli Origami (DE3); tag not removed for kinetics
In words: product formation by HPLC. Type of data set: biochemical. Conditions: co-substrate UDP-glc.

The target in data set [3] is T3, CsFGT (rCsFGT) (Camellia sinensis, UniProt A0A0X9FCW5, R319P).
T3 construct: gene UGT91Q1; N-terminal 6xHis-trigger factor fusion (pCold-TF), about 105 kDa; E. coli Origami (DE3); tag not removed for kinetics
T3 sequence (A0A0X9FCW5 entry or part of it R319P): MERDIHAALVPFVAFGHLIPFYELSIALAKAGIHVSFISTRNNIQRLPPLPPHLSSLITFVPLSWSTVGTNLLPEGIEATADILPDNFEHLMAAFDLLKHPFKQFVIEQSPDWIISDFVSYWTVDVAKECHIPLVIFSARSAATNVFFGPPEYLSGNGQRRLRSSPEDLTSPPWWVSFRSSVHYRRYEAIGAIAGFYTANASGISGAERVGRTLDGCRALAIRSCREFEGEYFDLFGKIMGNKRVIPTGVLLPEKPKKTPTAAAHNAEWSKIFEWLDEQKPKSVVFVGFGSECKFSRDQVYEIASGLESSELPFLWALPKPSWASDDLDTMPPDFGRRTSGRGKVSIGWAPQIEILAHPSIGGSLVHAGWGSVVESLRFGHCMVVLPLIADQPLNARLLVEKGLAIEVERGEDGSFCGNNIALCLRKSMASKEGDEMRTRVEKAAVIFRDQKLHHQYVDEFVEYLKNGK
Put plainly: product formation by HPLC. Format: biochemical. Conditions: co-substrate UDP-glc.

Data set [4] has as its target T4, CsFGT (rCsFGT) (Camellia sinensis, UniProt A0A0X9FCW5, E292Q).
T4 construct: gene UGT91Q1; N-terminal 6xHis-trigger factor fusion (pCold-TF), about 105 kDa; E. coli Origami (DE3); tag not removed for kinetics
In words: product formation by HPLC. Type of data set: biochemical. Conditions: co-substrate UDP-glc.

Data set [5] concerns the target T5, CsFGT (rCsFGT) (Camellia sinensis, UniProt A0A0X9FCW5, Q352I).
T5 construct: gene UGT91Q1; N-terminal 6xHis-trigger factor fusion (pCold-TF), about 105 kDa; E. coli Origami (DE3); tag not removed for kinetics
In words: product formation by HPLC. To be noted: co-substrate UDP-glc. Type of data set: biochemical.

Data set [6] has as its target T6, CsFGT (rCsFGT) (Camellia sinensis, UniProt A0A0X9FCW5, G290A).
T6 construct: gene UGT91Q1; N-terminal 6xHis-trigger factor fusion (pCold-TF), about 105 kDa; E. coli Origami (DE3); tag not removed for kinetics
Put plainly: product formation by HPLC. Format: biochemical. To be noted: co-substrate UDP-glc.

The target of data set [7] is T7, CsFGT (rCsFGT) (Camellia sinensis, UniProt A0A0X9FCW5, E292T).
T7 construct: gene UGT91Q1; N-terminal 6xHis-trigger factor fusion (pCold-TF), about 105 kDa; E. coli Origami (DE3); tag not removed for kinetics
T7 sequence (A0A0X9FCW5 entry or part of it E292T): as the sequence (A0A0X9FCW5 entry or part of it R319P) above, with E292T, P319R counted along it
In words: product formation by HPLC. Format: biochemical. To be noted: co-substrate UDP-glc.

For data set [8], the target named is T8, CsFGT (rCsFGT) (Camellia sinensis, UniProt A0A0X9FCW5, S291G).
T8 construct: gene UGT91Q1; N-terminal 6xHis-trigger factor fusion (pCold-TF), about 105 kDa; E. coli Origami (DE3); tag not removed for kinetics
T8 sequence (A0A0X9FCW5 entry or part of it S291G): as the sequence (A0A0X9FCW5 entry or part of it R319P) above, with S291G, P319R counted along it
In words: product formation by HPLC. Type of data set: biochemical. Conditions: co-substrate UDP-glc.

Substrate in data set [9]: C[C@@H]1O[C@@H](OC[C@H]2O[C@@H](Oc3c(-c4ccc(O)c(O)c4)oc4cc(O)cc(O)c4c3=O)[C@H](O)[C@@H](O)[C@@H]2O)[C@H](O)[C@H](O)[C@H]1O
In words: UDP-Glo glycosyltransferase assay, Michaelis-Menten fit. Type of data set: biochemical, Camellia sinensis. To be noted: 1 mM UDP-glucose, 50 mM phosphate pH 8.0, 30°C, 10 min. The text has this:
(§1) UDP-Glo glycosyltransferase assay, Michaelis-Menten fit on CsFGT (rCsFGT)

Substrate in data set [10]: O=c1ccn([C@@H]2O[C@H](COP(=O)(O)OP(=O)(O)O[C@H]3O[C@H](CO)[C@H](O)[C@H](O)[C@H]3O)[C@@H](O)[C@H]2O)c(=O)[nH]1
The description is as above. To be noted: co-substrate delphinidin, pH 8.0, 30°C, 10 min, galactosyl transfer. Format: biochemical, Camellia sinensis.
Description: as §1

Substrate in data set [11]: Oc1cc(O)c2cc(O)c(-c3cc(O)c(O)c(O)c3)[o+]c2c1
Described as above. Conditions: 1 mM UDP-galactose, pH 8.0, 30°C, 10 min, galactosyl transfer. Format: biochemical, Camellia sinensis.
Description: as §1

Substrate in data set [12]: O=c1ccn([C@@H]2O[C@H](CO[P@@](=O)(O)O[P@@](=O)(O)O[C@H]3O[C@H](CO)[C@@H](O)[C@H](O)[C@H]3O)[C@@H](O)[C@H]2O)c(=O)[nH]1
Described as above. Format: biochemical, Camellia sinensis. Conditions: 100 μM Q-g-r (rutin), 50 mM phosphate pH 8.0, 30°C, 10 min.
Description: as §1

In general, Km refers to the substrate concentration at which the rate is half of its maximum. As a reminder, the kcat/Km is the second-order rate constant that governs catalysis at low substrate concentration.

T5 sequence (A0A0X9FCW5 entry or part of it Q352I): as the sequence (A0A0X9FCW5 entry or part of it R319P) above, with P319R, Q352I counted along it
T1 sequence (A0A0X9FCW5 entry or part of it R319N): as the sequence (A0A0X9FCW5 entry or part of it R319P) above, with P319N counted along it
T6 sequence (A0A0X9FCW5 entry or part of it G290A): as the sequence (A0A0X9FCW5 entry or part of it R319P) above, with G290A, P319R counted along it
T4 sequence (A0A0X9FCW5 entry or part of it E292Q): as the sequence (A0A0X9FCW5 entry or part of it R319P) above, with E292Q, P319R counted along it
T2 sequence (A0A0X9FCW5 entry or part of it Q352A): as the sequence (A0A0X9FCW5 entry or part of it R319P) above, with P319R, Q352A counted along it

For `C[C@@H]1O[C@@H](OC[C@H]2O[C@@H](Oc3c(-c4ccc(O)c(O)c4)oc4cc(O)cc(O)c4c3=O)[C@H](O)[C@@H](O)[C@@H]2O)[C@H](O)[C@H](O)[C@H]1O` [Q-g-r], the relative enzymatic activity entry at CsFGT (rCsFGT) [1] was “the mutant R319N had significantly enhanced activity”; at CsFGT (rCsFGT) [2], “E292T, Q352A, and Q352I mutants exhibited significantly decreased activity”; on CsFGT (rCsFGT) [3], “mutants with activity unchanged or enhanced (G290A, S291G, E292Q, R319N, and R319P)”; on CsFGT (rCsFGT) [4] it was “mutants with activity unchanged or enhanced (G290A, S291G, E292Q, R319N, and R319P)”; on CsFGT (rCsFGT) [5], “E292T, Q352A, and Q352I mutants exhibited significantly decreased activity”; at CsFGT (rCsFGT) [6], “mutants with activity unchanged or enhanced (G290A, S291G, E292Q, R319N, and R319P)”. Besides, the relative enzymatic activity entry at CsFGT (rCsFGT) [7] was “E292T, Q352A, and Q352I mutants exhibited significantly decreased activity”; at CsFGT (rCsFGT) [8], “mutants with activity unchanged or enhanced (G290A, S291G, E292Q, R319N, and R319P)”.

B1: CsFGT (rCsFGT) (Camellia sinensis) (protein)
chain: MERDIHAALVPFVAFGHLIPFYELSIALAKAGIHVSFISTRNNIQRLPPLPPHLSSLITFVPLSWSTVGTNLLPEGIEATADILPDNFEHLMAAFDLLKHPFKQFVIEQSPDWIISDFVSYWTVDVAKECHIPLVIFSARSAATNVFFGPPEYLSGNGQRRLRSSPEDLTSPPWWVSFRSSVHYRRYEAIGAIAGFYTANASGISGAERVGRTLDGCRALAIRSCREFEGEYFDLFGKIMGNKRVIPTGVLLPEKPKKTPTAAAHNAEWSKIFEWLDEQKPKSVVFVGFGSECKFSRDQVYEIASGLESSELPFLWALRKPSWASDDLDTMPPDFGRRTSGRGKVSIGWAPQIEILAHPSIGGSLVHAGWGSVVESLRFGHCMVVLPLIADQPLNARLLVEKGLAIEVERGEDGSFCGNNIALCLRKSMASKEGDEMRTRVEKAAVIFRDQKLHHQYVDEFVEYLKNGK
notes: N-terminal 6xHis-trigger factor fusion (pCold-TF), about 105 kDa; E. coli Origami (DE3); tag not removed for kinetics
Consider B1, for which the Km in data set [9] stood at 50.3 ± 9.7 µM; in data set [10], 1143.3 ± 313.5 µM; in [11], 902.5 ± 109.0 µM; in data set [12], 209.7 ± 43.9 µM. For the same molecule, the kcat/Km in data set [9] was found to be 610000 M⁻¹ s⁻¹; in data set [10], 3100 M⁻¹ s⁻¹; in [11] it was 24000 M⁻¹ s⁻¹; in [12] it was 110000 M⁻¹ s⁻¹.
